Test results reported in patent US20210393745A1, “OLIGOMER EXTENDED INSULIN-FC CONJUGATES AND THEIR MEDICAL USE” (Novo Nordisk A/S, priority 2018, published 2021).

Tests used:
[1] = system: streptozotocin treated Sprague-Dawley rats; experiment: In vivo PD, blood glucose lowering in streptozotocin treated rats; parameters: species or system Sprague-Dawley rat; conditions: s.c. 30 nmol/kg, baseline corrected BG up to 10 days, difference from vehicle, mean
Procedure: (§1) Insulin-Fc conjugates were tested in vivo by subcutaneous (s.c.) administration to normal and streptozotocin (STZ) treated male Sprague-Dawley (SD) rats.
(§2) The rats were dosed s.c. in the neck region with a dose of 30 nmol/kg of the insulin-Fc conjugates. Blood samples for blood glucose and plasma insulin analysis were collected from the tongue vein up to 10 days post dosing. The insulin-Fc concentrations were measured by immuno-assay (LLOQ=1000 pM) and the resulting half-life values after s.c. dosing are shown in Table 4. The PK profiles for normal rats are shown in FIG. 3 and for streptozotocin treated rats in FIG. 6. Blood glucose (BG) was measured using Biosen S Line (EKF) and the BG and baseline corrected BG profiles for normal rats are shown in FIGS. 1 and 2 and for streptozotocin treated rats in FIGS. 4 and 5 respectively.

[2] = Stability study: high-molecular weight products by native size-exclusion chromatography; type: physicochemical; conditions: HMWP %(5° C.) − HMWP %(30° C.), 30 μM, pH 7.4
Procedure: (§3) Samples for stability studies were prepared by weighing out 8-10 mg freeze-dried material. The freeze-dried material was solubilized to […] in a premade solution A (5 mM phophate (pH 7.4), 140 mM NaCl and 70 ppm polysorbate 20). Protein concentration was determined using absorbance at 280 nm using a Nanodrop 2000 (Thermo Fisher Scientific Inc.) and theoretical extinction coefficients. Dilution into solution A was done to reach a final concentration of 30 μM.
Native size-exclusion chromatography was performed on a High-Performance Liquid Chromatography system (Waters Alliance) equipped with a UV/Vis detector (Waters 2489 UV/Vis detector). A Waters XBridge BEH 200 Å, 3.5 μm column with dimensions 7.8×300 mm, kept at 30° C., was used. The mobile phase was 50 mM sodium phosphate (pH 7.0), 50 mM NaCl, 5% isopropyl alcohol (v/v). Injection volume was 5 μL. The flow rate was kept at 0.5 mL/min. Peaks were detected using absorbance at 215 nm and data processing is performed with the EMPOWER 3 software from Waters. Samples were analysed for high molecular weight products (HMWP) by relating the total integral of material eluting before main peak with main monomeric peak. In all chromatograms, full baseline separation was observed. […]
Stability of Fc-insulin analogues was evaluated by comparing purity from anion exchange chromatography and formation of high molecular weight products (HMWP) at 5° C. […]

[3] = Stability study: purity by anionic exchange chromatography; type: physicochemical; conditions: purity %(5° C.) − purity %(30° C.), 30 μM, pH 7.4
Procedure: as §3
Anionic exchange chromatography was performed on an Ultra-Performance Liquid Chromatography system (Waters Acquity H-Class) equipped with a fluorescence detector (Waters Acquity FLR Detector). A Bio SAX column with dimensions 50×4.6 mm from Agilent, kept at 30° C., was used in gradient elution mode. Mobile phase A was 5/95 (v/v), acetonitrile/water with 25 mM BIS-TRIS propane, pH 7.3 and mobile phase B was 5/95 (v/v), acetonitrile/water with 25 mM BIS-TRIS propane and 350 mM NaCl, pH 7.3. Injection volume was 3 μL. The flow rate was kept at 0.5 mL/min with a linear gradient from 10 to 47% B in 3 min followed by a linear gradient from 47 to 55% B in 30 min. Peaks were detected with an emission wavelength of […] and data processing is performed with the EMPOWER 3 software from Waters. Samples were analysed for purity as percent API in relation to all other species.
Reported as Δ purity %=purity %(5° C.)−purity % (30° C.).
Stability of Fc-insulin analogues was evaluated by comparing purity from anion exchange chromatography and formation of high molecular weight products (HMWP) at 5° C. (control) versus 30° C. (heat induced stress). […] The amount of HMWP was decreased by 0.5-2% in the stressed sample versus the control, i.e. some aggregated material has disassociated during incubation at 30° C.

primary rat adipocytes = experiment: Lipogenesis in rat adipocytes; type: cell-based; conditions: relative to human insulin
Procedure: As a measure of in vitro potency of the insulin conjugatess of the invention, lipogenesis can be used. Primary rat adipocytes are isolated from the epididymale fat pads and incubated with 3H-glucose in buffer containing e.g. 0.1% fat free HSA and either standard (human insulin, HI) or insulin conjugates of the invention. The labelled glucose is converted into extractable lipids in a dose dependent way, resulting in full dose response curves. The result is expressed as relative potency (%) with 95% confidence limits of insulin of the invention compared to standard (HI).

[4] = In vivo PK after s.c. dosing, normal rats; parameters: species or system Sprague-Dawley rat; conditions: s.c. 30 nmol/kg, mean value
Procedure: as §1, §2

[5] = target: T1, membrane-associated human IGF-1R (Homo sapiens, UniProt P08069); experiment: IGF-1 receptor affinity on membrane associated receptors (SPA); type: binding; conditions: membrane-associated IGF-1R, relative to human insulin
T1 construct: expressed in transfected cells; host or cells: BHK cells, pZem219B vector, plasma membrane preparation
Procedure: Membrane-associated human IR and IGF-1R are purified from BHK cells stably transfected with the pZem219B vector containing either the human IR-A, IR-B or IGF-IR insert. BHK cells are harvested and homogenized in ice-cold buffer (25 mM HEPES pH 7.4, 25 mM CaCl2 and 1 mM MgCl2, 250 mg/L bacitracin, 0.1 mM Pefablock). The homogenates are layered on a 41% (w/v) sucrose cushion and centrifuged for 75 minutes at 95000 g at 4° C. The plasma membranes are collected, diluted 1:5 with buffer (as above) and centrifuged again for 45 minutes at 40000 g at 4° C. The pellets are resuspended in a minimal volume of buffer and drawn through a needle (size 23) three times before storage at −80° C. until usage. The relative binding affinity for either of the membrane-associated human IR-A, IR-B or IGF-1R is determined by competition binding in a SPA setup. IR assays are performed in duplicate in 96-well OptiPlates (Perkin-Elmer Life Sciences). Membrane protein is incubated with gentle agitation for 150 minutes at 25° C. with 50 pM [^125IA14Y]-human insulin in a total volume of […] assay buffer (50 mM HEPES, 150 mM NaCl, 5 mM MgSO4, 0.01% Triton X-100, 0.1% (w/v) HSA (Sigma A1887), Complete EDTA-free protease inhibitors), 50 μg of wheat germ agglutinate (WGA)-coated PVT microspheres (GE Healthcare) and increasing concentrations of ligand. Assays are terminated by centrifugation of the plate at 2000 rpm for 2 minutes and bound radioactivity quantified by counting on a TopCount NXT (Perkin-Elmer Life Sciences).
IGF-1R assays are conducted essentially as for the IR binding assays except that membrane-associated IGF-1R and 50 pM [^125I-Tyr31]-human IGF-1 were employed.

T1 sequence (P08069 31-736 limits assumed): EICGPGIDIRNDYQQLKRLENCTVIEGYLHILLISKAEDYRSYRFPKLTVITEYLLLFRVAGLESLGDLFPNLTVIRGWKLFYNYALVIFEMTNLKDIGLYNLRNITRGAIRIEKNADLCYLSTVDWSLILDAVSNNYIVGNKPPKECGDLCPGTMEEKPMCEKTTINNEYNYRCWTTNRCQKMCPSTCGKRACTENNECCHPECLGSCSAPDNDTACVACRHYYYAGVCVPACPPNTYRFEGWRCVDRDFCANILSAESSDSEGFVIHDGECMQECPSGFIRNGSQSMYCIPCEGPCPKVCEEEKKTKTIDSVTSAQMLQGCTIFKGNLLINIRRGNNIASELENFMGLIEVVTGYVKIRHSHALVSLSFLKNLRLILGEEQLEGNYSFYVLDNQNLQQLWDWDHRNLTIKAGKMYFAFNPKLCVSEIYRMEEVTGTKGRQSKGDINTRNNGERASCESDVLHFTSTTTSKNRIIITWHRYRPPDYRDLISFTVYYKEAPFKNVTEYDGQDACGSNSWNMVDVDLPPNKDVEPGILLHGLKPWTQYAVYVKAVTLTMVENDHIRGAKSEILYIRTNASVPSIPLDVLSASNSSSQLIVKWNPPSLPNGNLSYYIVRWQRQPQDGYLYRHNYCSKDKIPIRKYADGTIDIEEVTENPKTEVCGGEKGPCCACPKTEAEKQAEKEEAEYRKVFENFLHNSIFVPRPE
T1 sequence (P08069 741-1367 partner limits assumed): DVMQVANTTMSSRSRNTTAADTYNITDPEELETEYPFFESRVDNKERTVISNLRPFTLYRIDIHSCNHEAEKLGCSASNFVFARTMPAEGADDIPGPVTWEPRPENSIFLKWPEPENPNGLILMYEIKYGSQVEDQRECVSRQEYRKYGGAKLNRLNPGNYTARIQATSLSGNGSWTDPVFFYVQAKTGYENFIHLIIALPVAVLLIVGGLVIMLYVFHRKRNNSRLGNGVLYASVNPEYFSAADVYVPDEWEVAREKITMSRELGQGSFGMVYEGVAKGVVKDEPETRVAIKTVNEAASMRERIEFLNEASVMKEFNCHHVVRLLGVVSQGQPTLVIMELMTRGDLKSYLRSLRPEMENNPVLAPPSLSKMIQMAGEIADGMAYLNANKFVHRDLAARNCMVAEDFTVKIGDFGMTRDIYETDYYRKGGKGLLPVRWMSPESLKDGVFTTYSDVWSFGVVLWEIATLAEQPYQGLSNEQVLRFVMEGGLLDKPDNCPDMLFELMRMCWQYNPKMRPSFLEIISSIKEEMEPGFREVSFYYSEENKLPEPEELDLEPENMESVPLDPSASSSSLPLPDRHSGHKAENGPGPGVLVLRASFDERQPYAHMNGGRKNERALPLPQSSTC

Substance | AOCBG STZ rat [1] | Δ HMWP % [2] | Δ purity [3] | Lipogenesis Rel. pot. (%) (primary rat adipocytes) | PK normal rat [T1/2, s.c. (h)] [4] | IGF1R mem Rel. aff. (%) [5]
(A14E, A21G, A22(GQEP)12, A70K^, A71P, B25H, B29R, desB30 human insulin)/(226A, 227G, 228P, 234A, 235K, 297E, 315Q, 384Q, des447 hIgG4-Fc(226-447))3,5-bis[(2-acetyl)amino]benzoyl Conjugate [Example 5.1] | 3181 mM·h | −2.17% | 3.3% | 2.86% | 20 h | 0.91%
(A14E, A21G, A22(GQEP)11, A66G, A67Q, A68E, A69K^, A70P, B16H, B25H, B29R, desB30 human insulin)/(226A, 227G, 228P, 234A, 235K, 297E, 315Q, 384Q, des447 hIgG4-Fc(226-447))3,5-bis[(2-acetyl)amino]benzoyl Conjugate [Example 5.2] | 4106 mM·h | −0.63% | 6.7% | 1.14% | 38 h | 0.10%
